According to paper PMC5218480 (PLoS ONE, 2017):

System: MV-4-11 cells
Experiment: Gene expression microarray analysis (Affymetrix PrimeView) and GSEA
Format: cell-based, human
Set-up: RFU PODN (11730768_x_at) / Fold change /veh PODN (11730768_x_at) / RFU LINC00158 (11744669_a_at) / Fold change /veh LINC00158 (11744669_a_at) / RFU DUSP10 (11751237_a_at) / Fold change /veh DUSP10 (11751237_a_at) / RFU ID3 (11757404_x_at) / Fold change /veh ID3 (11757404_x_at) / RFU PLEKHG5 (11737974_s_at) / Fold change /veh PLEKHG5 (11737974_s_at) / RFU LRRC4B (11730491_at) / Fold change /veh LRRC4B (11730491_at) / RFU GIMAP4 (11747438_a_at) / Fold change /veh GIMAP4 (11747438_a_at) / RFU KRT8 (11758183_x_at) / Fold change /veh KRT8 (11758183_x_at) / RFU CNN1 (11734310_a_at) / Fold change /veh CNN1 (11734310_a_at) / RFU VPS37D (11726825_at) / Fold change /veh VPS37D (11726825_at) / RFU C10orf10 (11716522_x_at) / Fold change /veh C10orf10 (11716522_x_at) / RFU KIR2DL2 /// KIR2DL4 /// KIR2DL5A /// KIR2DL5B /// KIR2DS1 /// KIR2DS2 /// KIR2DS3 /// KIR2DS4 /// KIR3DL3 /// KIR3DL3 /// KIR3DS1 (11738374_at) / Fold change /veh KIR2DL2 /// KIR2DL4 /// KIR2DL5A /// KIR2DL5B /// KIR2DS1 /// KIR2DS2 /// KIR2DS3 /// KIR2DS4 /// KIR3DL3 /// KIR3DL3 /// KIR3DS1 (11738374_at) / RFU C1QL1 (11718748_at) / Fold change /veh C1QL1 (11718748_at) / RFU TMPRSS4 (11747572_a_at) / Fold change /veh TMPRSS4 (11747572_a_at) / RFU HAMP (11756126_x_at) / Fold change /veh HAMP (11756126_x_at) / RFU RNFT2 (11725882_a_at) / Fold change /veh RNFT2 (11725882_a_at) / RFU NR4A2 (11747474_a_at) / Fold change /veh NR4A2 (11747474_a_at) / RFU ABCC12 (11746883_a_at) / Fold change /veh ABCC12 (11746883_a_at) / RFU TMEM136 (11760407_x_at) / Fold change /veh TMEM136 (11760407_x_at) / RFU CLDN22 /// WWC2 (11732394_at) / Fold change /veh CLDN22 /// WWC2 (11732394_at) / RFU HLA-DPB1 (11760878_x_at) / Fold change /veh HLA-DPB1 (11760878_x_at) / RFU SPINT1 (11716480_a_at) / Fold change /veh SPINT1 (11716480_a_at) / RFU GAP43 (11754022_s_at) / Fold change /veh GAP43 (11754022_s_at) / RFU A4GNT (11735810_at) / Fold change /veh A4GNT (11735810_at) / RFU PRB3 (11715151_x_at) / Fold change /veh PRB3 (11715151_x_at) / RFU TUBB4B (11761932_at) / Fold change /veh TUBB4B (11761932_at) / RFU CAPN14 (11732068_a_at) / Fold change /veh CAPN14 (11732068_a_at) / RFU TMCC2 (11721928_a_at) / Fold change /veh TMCC2 (11721928_a_at) / RFU IRGQ (11745062_a_at) / Fold change /veh IRGQ (11745062_a_at) / RFU FAM174B (11720279_a_at) / Fold change /veh FAM174B (11720279_a_at) / RFU TMPRSS4 (11748680_a_at) / Fold change /veh TMPRSS4 (11748680_a_at) / RFU FAM212B (11763350_a_at) / Fold change /veh FAM212B (11763350_a_at) / RFU PLEKHG5 (11743358_a_at) / Fold change /veh PLEKHG5 (11743358_a_at) / RFU ZSCAN30 (11745921_a_at) / Fold change /veh ZSCAN30 (11745921_a_at) / RFU CMKLR1 (11741424_a_at) / Fold change /veh CMKLR1 (11741424_a_at) / RFU LOC101060620 /// MAPK8IP1 (11723275_at) / Fold change /veh LOC101060620 /// MAPK8IP1 (11723275_at) / RFU SPTSSB (11747773_x_at) / Fold change /veh SPTSSB (11747773_x_at) / RFU PRSS12 (11739890_at) / Fold change /veh PRSS12 (11739890_at) / RFU BIN1 (11741810_x_at) / Fold change /veh BIN1 (11741810_x_at) / RFU WNT11 (11732464_a_at) / Fold change /veh WNT11 (11732464_a_at) / RFU C10orf10 (11716521_a_at) / Fold change /veh C10orf10 (11716521_a_at) / RFU C5orf56 (11738089_at) / Fold change /veh C5orf56 (11738089_at) / RFU CYB561 (11721691_x_at) / Fold change /veh CYB561 (11721691_x_at) / RFU ANKRD19P (11752326_a_at) / Fold change /veh ANKRD19P (11752326_a_at) / RFU OR2T12 /// OR2T33 /// OR2T8 (11738714_s_at) / Fold change /veh OR2T12 /// OR2T33 /// OR2T8 (11738714_s_at) / RFU VCAN (11748164_a_at) / Fold change /veh VCAN (11748164_a_at) / RFU JSRP1 (11732532_at) / Fold change /veh JSRP1 (11732532_at) / RFU KRTAP10-11 (11738290_x_at) / Fold change /veh KRTAP10-11 (11738290_x_at) / RFU MYO3A (11730013_a_at) / Fold change /veh MYO3A (11730013_a_at) / RFU EBF3 (11725865_a_at) / Fold change /veh EBF3 (11725865_a_at) / RFU CAMK2N1 (11719241_x_at) / Fold change /veh CAMK2N1 (11719241_x_at) / RFU C5orf56 (11738088_a_at) / Fold change /veh C5orf56 (11738088_a_at) / RFU OLFML3 (11715873_a_at) / Fold change /veh OLFML3 (11715873_a_at) / RFU LOC100653217 /// NTM (11731650_a_at) / Fold change /veh LOC100653217 /// NTM (11731650_a_at) / RFU MAPK11 (11762145_a_at) / Fold change /veh MAPK11 (11762145_a_at) / RFU FIZ1 (11724087_x_at) / Fold change /veh FIZ1 (11724087_x_at) / RFU OASL (11726364_x_at) / Fold change /veh OASL (11726364_x_at) / RFU SOX15 (11748057_x_at) / Fold change /veh SOX15 (11748057_x_at) / RFU CD79A (11719716_a_at) / Fold change /veh CD79A (11719716_a_at) / RFU HIST1H1D (11736915_at) / Fold change /veh HIST1H1D (11736915_at) / RFU CASKIN2 (11723855_a_at) / Fold change /veh CASKIN2 (11723855_a_at) / RFU LOC730098 (11760151_x_at) / Fold change /veh LOC730098 (11760151_x_at) / RFU OR4N2 (11742367_at) / Fold change /veh OR4N2 (11742367_at) / RFU PRRT2 (11749266_a_at) / Fold change /veh PRRT2 (11749266_a_at) / RFU SNX32 (11753110_a_at) / Fold change /veh SNX32 (11753110_a_at) / RFU CDHR5 (11726645_a_at) / Fold change /veh CDHR5 (11726645_a_at) / RFU RCAN1 (11760418_a_at) / Fold change /veh RCAN1 (11760418_a_at) / RFU FAM167A (11723789_a_at) / Fold change /veh FAM167A (11723789_a_at) / RFU FAM26E (11764081_at) / Fold change /veh FAM26E (11764081_at) / RFU ISYNA1 (11749810_s_at) / Fold change /veh ISYNA1 (11749810_s_at) / RFU ACY1 (11761880_at) / Fold change /veh ACY1 (11761880_at) / RFU 11764098_at / Fold change /veh 11764098_at / RFU SAMD14 (11745864_x_at) / Fold change /veh SAMD14 (11745864_x_at) / RFU NPB (11741838_a_at) / Fold change /veh NPB (11741838_a_at) / RFU TMPRSS6 (11731388_a_at) / Fold change /veh TMPRSS6 (11731388_a_at) / RFU KRTAP10-2 (11738614_at) / Fold change /veh KRTAP10-2 (11738614_at) / RFU ARHGAP8 /// PRR5-ARHGAP8 (11727945_x_at) / Fold change /veh ARHGAP8 /// PRR5-ARHGAP8 (11727945_x_at) / RFU KRTAP5-7 /// NADSYN1 (11734609_at) / Fold change /veh KRTAP5-7 /// NADSYN1 (11734609_at) / RFU RASL12 (11751679_a_at) / Fold change /veh RASL12 (11751679_a_at) / RFU CDKN2B (11736163_a_at) / Fold change /veh CDKN2B (11736163_a_at) / RFU PRF1 (11729649_at) / Fold change /veh PRF1 (11729649_at) / RFU, ZNF638 /// ZNF638-IT1 / Fold change vs veh, ZNF638 /// ZNF638-IT1 / RFU, PANK3 / Fold change vs veh, PANK3 / RFU, SH3YL1 / Fold change vs veh, SH3YL1 / RFU, ZEB2 / Fold change vs veh, ZEB2 / RFU, NRIP1 / Fold change vs veh, NRIP1 / RFU, PTTG1IP / Fold change vs veh, PTTG1IP / RFU, CAPN2 / Fold change vs veh, CAPN2 / RFU, MED14 / Fold change vs veh, MED14 / RFU, SNORA58 / Fold change vs veh, SNORA58 / RFU, C1orf63 / Fold change vs veh, C1orf63 / RFU, LRRFIP1 / Fold change vs veh, LRRFIP1 / RFU, NDUFAF7 / Fold change vs veh, NDUFAF7 / RFU, SLC12A2 / Fold change vs veh, SLC12A2 / RFU, IBTK / Fold change vs veh, IBTK / RFU, ESF1 / Fold change vs veh, ESF1 / Fold change vs veh, TMEM50B / RFU, TAOK1 / Fold change vs veh, TAOK1 / RFU, ACBD3 / Fold change vs veh, ACBD3 / RFU, TMA16 / Fold change vs veh, TMA16 / RFU, RWDD3 / Fold change vs veh, RWDD3 / RFU, BCAT1 / Fold change vs veh, BCAT1 / RFU, EDEM3 / Fold change vs veh, EDEM3 / RFU, TMEM33 / Fold change vs veh, TMEM33 / RFU, WDR75 / Fold change vs veh, WDR75 / RFU, AHCTF1 / Fold change vs veh, AHCTF1 / RFU, TFRC / Fold change vs veh, TFRC / RFU, ZDHHC17 / Fold change vs veh, ZDHHC17 / RFU, NOM1 / Fold change vs veh, NOM1 / RFU, ARL8B / Fold change vs veh, ARL8B / RFU, ZBTB11 / Fold change vs veh, ZBTB11 / RFU, TAMM41 / Fold change vs veh, TAMM41 / RFU, KIAA1704 /// LOC100996395 / Fold change vs veh, KIAA1704 /// LOC100996395 / RFU, ING1 / Fold change vs veh, ING1 / RFU, TRMT61B / Fold change vs veh, TRMT61B / RFU, FUBP3 / Fold change vs veh, FUBP3 / RFU, TP53 / Fold change vs veh, TP53 / RFU, TNKS2 / Fold change vs veh, TNKS2 / RFU, ZFP14 / Fold change vs veh, ZFP14 / RFU, ACTR2 / Fold change vs veh, ACTR2 / RFU, PPP3R1 / Fold change vs veh, PPP3R1 / RFU, PIK3R1 / Fold change vs veh, PIK3R1 / RFU, HNRNPA1 / Fold change vs veh, HNRNPA1 / RFU, RNF170 / Fold change vs veh, RNF170 / RFU, ZNF28 / Fold change vs veh, ZNF28 / RFU, RNGTT / Fold change vs veh, RNGTT / RFU, OGT / Fold change vs veh, OGT / RFU, BRD1 / Fold change vs veh, BRD1 / RFU, MARS / Fold change vs veh, MARS / RFU, ZNF655 / Fold change vs veh, ZNF655 / RFU, FAHD1 / Fold change vs veh, FAHD1 / RFU, BDP1 / Fold change vs veh, BDP1 / RFU, LRRCC1 / Fold change vs veh, LRRCC1 / RFU, ARID1A / Fold change vs veh, ARID1A / RFU, ZNF146 / Fold change vs veh, ZNF146 / RFU, ZNF330 / Fold change vs veh, ZNF330 / RFU, GPN3 / Fold change vs veh, GPN3 / RFU, C9orf123 / Fold change vs veh, C9orf123 / RFU, N4BP2L2 / Fold change vs veh, N4BP2L2 / RFU, ARFIP1 / Fold change vs veh, ARFIP1 / RFU, FAM179B / Fold change vs veh, FAM179B / RFU, BCL10 / Fold change vs veh, BCL10 / RFU, UHRF1BP1L / Fold change vs veh, UHRF1BP1L / RFU, BET1 / Fold change vs veh, BET1 / RFU, CNOT2 / Fold change vs veh, CNOT2 / RFU, ZNF268 / Fold change vs veh, ZNF268 / Fold change vs veh, ZNF507 / RFU, DGCR2 / Fold change vs veh, DGCR2 / RFU, WDSUB1 / Fold change vs veh, WDSUB1 / Fold change vs veh, HSP90B1 /// MIR3652 / RFU, ADSS / Fold change vs veh, ADSS / RFU, GK / Fold change vs veh, GK / RFU, ZNF148 / Fold change vs veh, ZNF148 / RFU, TAF9 / Fold change vs veh, TAF9 / RFU, SLC1A5 / Fold change vs veh, SLC1A5 / RFU, SLMO2 / Fold change vs veh, SLMO2 / RFU, ABCC4 / Fold change vs veh, ABCC4 / RFU, LOC101060439 /// RAP1B / Fold change vs veh, LOC101060439 /// RAP1B / RFU, RFX7 / Fold change vs veh, RFX7 / RFU, GTPBP10 / Fold change vs veh, GTPBP10 / RFU, CNEP1R1 / Fold change vs veh, CNEP1R1 / RFU, BIVM-ERCC5 /// ERCC5 / Fold change vs veh, BIVM-ERCC5 /// ERCC5 / RFU, ILF3 / Fold change vs veh, ILF3 / RFU 11762660_at / Fold change /veh 11762660_at / RFU VCAN (11757783_s_at) / Fold change /veh VCAN (11757783_s_at) / RFU DDX43 (11728927_at) / Fold change /veh DDX43 (11728927_at) / RFU KRT8 (11758188_x_at) / Fold change /veh KRT8 (11758188_x_at) / RFU NKD1 (11759106_at) / Fold change /veh NKD1 (11759106_at) / RFU SRD5A1 (11742802_a_at) / Fold change /veh SRD5A1 (11742802_a_at) / RFU TPSAB1 /// TPSB2 (11721975_s_at) / Fold change /veh TPSAB1 /// TPSB2 (11721975_s_at) / RFU GSTM3 (11746129_a_at) / Fold change /veh GSTM3 (11746129_a_at) / RFU IL23R (11737362_x_at) / Fold change /veh IL23R (11737362_x_at) / RFU TMEM51 (11727254_a_at) / Fold change /veh TMEM51 (11727254_a_at) / RFU PIWIL2 (11732686_x_at) / Fold change /veh PIWIL2 (11732686_x_at) / RFU ORM1 (11744905_x_at) / Fold change /veh ORM1 (11744905_x_at) / RFU CCDC152 (11743942_at) / Fold change /veh CCDC152 (11743942_at) / RFU ECM1 (11717891_a_at) / Fold change /veh ECM1 (11717891_a_at) / RFU IL23R (11748794_a_at) / Fold change /veh IL23R (11748794_a_at) / RFU TNFAIP8L3 (11732012_x_at) / Fold change /veh TNFAIP8L3 (11732012_x_at) / RFU MBOAT4 (11741988_at) / Fold change /veh MBOAT4 (11741988_at) / RFU 11764193_at / Fold change /veh 11764193_at / RFU TMEM53 (11763286_at) / Fold change /veh TMEM53 (11763286_at) / RFU MAGEB2 (11727129_at) / Fold change /veh MAGEB2 (11727129_at) / RFU TMEM200A (11744735_a_at) / Fold change /veh TMEM200A (11744735_a_at) / RFU CCDC152 (11751479_a_at) / Fold change /veh CCDC152 (11751479_a_at) / RFU FAM211A (11726209_a_at) / Fold change /veh FAM211A (11726209_a_at) / RFU RGS16 (11746705_a_at) / Fold change /veh RGS16 (11746705_a_at) / RFU VCAN (11755009_s_at) / Fold change /veh VCAN (11755009_s_at) / RFU RHOB (11743442_s_at) / Fold change /veh RHOB (11743442_s_at) / RFU RGS16 (11720943_a_at) / Fold change /veh RGS16 (11720943_a_at) / RFU RGS16 (11720944_at) / Fold change /veh RGS16 (11720944_at) / RFU, VPS4B / Fold change vs veh, VPS4B / RFU, CREB1 / Fold change vs veh, CREB1 / RFU, DNAJC13 / Fold change vs veh, DNAJC13 / RFU, GNAQ / Fold change vs veh, GNAQ / RFU, CDK5R1 / Fold change vs veh, CDK5R1 / RFU, ZRANB3 / Fold change vs veh, ZRANB3 / RFU, CUL4A / Fold change vs veh, CUL4A / RFU, CCNY / Fold change vs veh, CCNY / RFU, UFL1 / Fold change vs veh, UFL1 / RFU, COG3 / Fold change vs veh, COG3 / RFU, DIAPH2 / Fold change vs veh, DIAPH2 / RFU, SKA2 / Fold change vs veh, SKA2 / RFU, AFF3 / Fold change vs veh, AFF3 / RFU, LMF1 / Fold change vs veh, LMF1 / RFU, IPO11 / Fold change vs veh, IPO11 / RFU, DFFB / Fold change vs veh, DFFB / RFU, FOXP1 / Fold change vs veh, FOXP1 / RFU, CARD8 / Fold change vs veh, CARD8 / RFU, STRN3 / Fold change vs veh, STRN3 / RFU, ADK / Fold change vs veh, ADK / RFU, RASSF2 / Fold change vs veh, RASSF2 / RFU, WIPF1 / Fold change vs veh, WIPF1 / RFU, LARP1B / Fold change vs veh, LARP1B / RFU, RASA1 / Fold change vs veh, RASA1 / RFU, RB1 / Fold change vs veh, RB1 / RFU, PPFIA1 / Fold change vs veh, PPFIA1 / RFU, MAT2A / Fold change vs veh, MAT2A / RFU, CCT5 / Fold change vs veh, CCT5 / RFU, WDR92 / Fold change vs veh, WDR92 / RFU, CUX1 / Fold change vs veh, CUX1 / RFU, TTC7A / Fold change vs veh, TTC7A / RFU, TMEM135 / Fold change vs veh, TMEM135 / RFU, DEPTOR / Fold change vs veh, DEPTOR / RFU, CPM / Fold change vs veh, CPM / RFU, DNAJB6 / Fold change vs veh, DNAJB6 / RFU, CACNA2D3 / Fold change vs veh, CACNA2D3 / RFU, DTX4 / Fold change vs veh, DTX4 / RFU, TFCP2 / Fold change vs veh, TFCP2 / RFU, GMCL1 /// GMCL1P1 / Fold change vs veh, GMCL1 /// GMCL1P1 / RFU, AEBP2 / Fold change vs veh, AEBP2 / RFU, SNHG1 /// SNORD22 /// SNORD25 /// SNORD26 /// SNORD27 /// SNORD28 /// SNORD29 /// SNORD31 / Fold change vs veh, SNHG1 /// SNORD22 /// SNORD25 /// SNORD26 /// SNORD27 /// SNORD28 /// SNORD29 /// SNORD31 / Fold change (Aza/veh), C12orf56 (ProbeSet 11735607_a_at) / Fold change (ACY-1035/veh), C12orf56 (ProbeSet 11735607_a_at) / Fold change (Aza/veh), FGFR1OP (ProbeSet 11751329_s_at) / Fold change (ACY-1035/veh), FGFR1OP (ProbeSet 11751329_s_at) / Fold change (Aza/veh), VPS36 (ProbeSet 11739960_a_at) / Fold change (ACY-1035/veh), VPS36 (ProbeSet 11739960_a_at) / RFU SYPL1 (11715823_x_at) / Fold change /veh SYPL1 (11715823_x_at) / RFU IGFBP7 (11715501_s_at) / Fold change /veh IGFBP7 (11715501_s_at) / RFU REEP3 (11722064_at) / Fold change /veh REEP3 (11722064_at) / RFU IGLL1 (11728026_x_at) / Fold change /veh IGLL1 (11728026_x_at): dose or concentration left out as unconfirmed
Settings: ProbeSet 11757268_x_at; LIST B

## Nc1ccc(-c2cccs2)cc1NC(=O)c1ccc2c(c1)cc(C1CC1)n2CCN1CCOCC1 [ACY-1035]
  RFU, HNRNPA1: 4786.54 RFU
